In US20220160747A1, “PHARMACEUTICAL COMPOSITION COMPRISING NOVEL AZOLOPYRIMIDINE HETEROCYCLIC COMPOUND AS ACTIVE INGREDIENT” (KOREA RESEARCH INSTITUTE OF CHEMICAL TECHNOLOGY, priority 2019, published 2022):

Tests used:
[1] = biological target: T1, human CD73 recombinant protein (Homo sapiens, UniProt P21589); assay: Enzyme assay, CD73 (Malachite green kit); type: biochemical; conditions: AMP added, incubation 30 minutes
T1 construct: made in house
T1 sequence (P21589 27-549): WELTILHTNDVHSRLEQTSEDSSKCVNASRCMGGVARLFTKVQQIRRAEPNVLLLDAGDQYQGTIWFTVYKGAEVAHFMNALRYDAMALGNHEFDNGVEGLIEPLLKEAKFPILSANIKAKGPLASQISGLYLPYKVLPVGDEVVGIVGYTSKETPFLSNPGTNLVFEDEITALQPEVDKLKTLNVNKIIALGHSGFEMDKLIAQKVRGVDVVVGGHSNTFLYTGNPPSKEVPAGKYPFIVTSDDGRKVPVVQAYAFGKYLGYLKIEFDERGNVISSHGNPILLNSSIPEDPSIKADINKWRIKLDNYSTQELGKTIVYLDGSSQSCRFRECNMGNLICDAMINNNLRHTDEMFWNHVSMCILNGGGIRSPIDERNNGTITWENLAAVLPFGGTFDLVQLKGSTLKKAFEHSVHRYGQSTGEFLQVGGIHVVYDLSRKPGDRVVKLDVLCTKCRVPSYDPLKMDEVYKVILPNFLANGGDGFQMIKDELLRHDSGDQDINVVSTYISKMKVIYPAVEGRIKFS
Procedure: (§1) Referring to a method described in a reference document [Front Pharmacol. 2018 Mar. 1; 9:153], an enzyme assay was performed. Each of human CD73 and CD39 recombinant proteins was produced and then purified and isolated, and used in an enzyme assay. A buffer was basically 25 mM Tris, 5 mM MgCl2, pH 7.5 as an assay buffer, and for assay, human CD73 and CD39 recombinant protein were diluted at an appropriate concentration, respectively, in the assay buffer, adenosine monophosphate (AMP) (Sigma, Catalog #A1752) at an appropriate concentration was added, and then incubation was performed for 30 minutes. At the time, the azolopyrimidine heterocyclic compounds of the present invention were treated for each concentration and incubated together, thereby measuring a degree of inhibiting activity of CD73 or CD39.

[2] = biological target: T2, human CD39 recombinant protein (Homo sapiens, UniProt P49961); assay: Enzyme assay, CD39 (Malachite green kit); type: biochemical; conditions: AMP added, incubation 30 minutes
T2 construct: made in house
T2 sequence (P49961 1-510): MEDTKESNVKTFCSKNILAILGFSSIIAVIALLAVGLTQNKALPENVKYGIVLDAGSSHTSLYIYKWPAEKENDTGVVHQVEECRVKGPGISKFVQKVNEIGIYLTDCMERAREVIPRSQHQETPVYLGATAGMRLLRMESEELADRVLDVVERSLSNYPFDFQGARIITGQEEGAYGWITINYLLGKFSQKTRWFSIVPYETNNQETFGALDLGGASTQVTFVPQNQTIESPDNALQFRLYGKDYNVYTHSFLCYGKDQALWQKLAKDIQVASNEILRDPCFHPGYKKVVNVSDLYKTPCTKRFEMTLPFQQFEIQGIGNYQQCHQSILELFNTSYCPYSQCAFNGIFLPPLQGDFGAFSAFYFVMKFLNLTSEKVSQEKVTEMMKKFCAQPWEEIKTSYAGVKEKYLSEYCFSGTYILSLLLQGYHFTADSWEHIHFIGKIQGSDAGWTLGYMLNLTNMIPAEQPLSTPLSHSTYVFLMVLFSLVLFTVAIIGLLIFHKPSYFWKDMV
Procedure: as §1

Row | SMILES | IC50 [1] [µM] | IC50 [2] [µM]
1 | CN(Cc1cccc(F)c1)c1ncnc2c1ncn2[C@@H]1O[C@H](CO[Si](c2ccccc2)(c2ccccc2)C(C)(C)C)[C@H]2OC(C)(C)O[C@H]21 [Compound 1, 9-((3aR,4R,6R,6aR)-6-(((tert-butyldiphenylsilyl)oxy)methyl)-2,2-dimethyltetrahydrofuro[3,4-d][1,3]dioxol-4-yl)-N-(3-fluorobenzyl)-N-methyl-9H-purin-6-amine] | ≥ 30 | 
2 | CN(Cc1cccc(F)c1)c1ncnc2c1ncn2[C@@H]1O[C@H](COC(=O)Nc2ccccc2)[C@H]2OC(C)(C)O[C@H]21 [Compound 3, ((3aR,4R,6R,6aR)-6-(6-((3-fluorobenzyl)(methyl)amino)-9H-purin-9-yl)-2,2-dimethyltetrahydrofuro[3,4-d][1,3]dioxol-4-yl)methyl phenylcarbamate] | 15.1 to 30 | 
3 | CN(Cc1cccc(F)c1)c1ncnc2c1ncn2[C@@H]1O[C@H](COC(=S)Nc2ccccc2)[C@H]2OC(C)(C)O[C@H]21 [Compound 4, O-(((3aR,4R,6R,6aR)-6-(6-((3-fluorobenzyl)(methyl)amino)-9H-purin-9-yl)-2,2-dimethyltetrahydrofuro[3,4-d][1,3]dioxol-4-yl)methyl) phenylcarbamothioate] | 15.1 to 30 | 
4 | CN(Cc1cccc(F)c1)c1ncnc2c1ncn2[C@@H]1O[C@H](COC(=O)Nc2ccccc2)[C@@H](O)[C@H]1O [Compound 6, ((2R,3S,4R,5R)-5-(6-((3-fluorobenzyl)(methyl)amino)-9H-purin-9-yl)-3,4-dihydroxytetrahydrofuran-2-yl)methyl phenylcarbamate] | 5.1 to 15 | 
5 | CN(Cc1cccc(F)c1)c1ncnc2c1ncn2[C@@H]1O[C@H](COC(=S)Nc2ccccc2)[C@@H](O)[C@H]1O [Compound 7, O-(((2R,3S,4R,5R)-5-(6-((3-fluorobenzyl)(methyl)amino)-9H-purin-9-yl)-3,4-dihydroxytetrahydrofuran-2-yl)methyl) phenylcarbamothioate] | 1.1 to 5 | ≥ 30
6 | CN(Cc1cccc(F)c1)c1ncnc2c1ncn2[C@@H]1O[C@H](CO[Si](c2ccccc2)(c2ccccc2)C(C)(C)C)[C@@H](O)[C@H]1O [Compound 8, (2R,3S,4R,5R)-2-(((tert-butyldiphenylsilyl)oxy)methyl)-5-(6-((3-fluorobenzyl)(methyl)amino)-9H-purin-9-yl)tetrahydrofuran-3,4-diol] | < 1 | 1.1 to 5
7 | CN(Cc1cccc(F)c1)c1ncnc2c1ncn2[C@@H]1O[C@H](COC(=O)c2ccccc2)[C@@H](O)[C@H]1O [Compound 9, ((2R,3S,4R,5R)-5-(6-((3-fluorobenzyl)(methyl)amino)-9H-purin-9-yl)-3,4-dihydroxytetrahydrofuran-2-yl)methyl benzoate] | 5.1 to 15 | 
8 | CN(Cc1cccc(F)c1)c1ncnc2c1ncn2[C@@H]1O[C@H](COCc2ccc(-c3ccccc3)cc2)[C@@H](O)[C@H]1O [Compound 13, (2R,3S,4R,5R)-2-(([1,1′-biphenyl]-4-ylmethoxy)methyl)-5-(6-((3-fluorobenzyl)(methyl)amino)-9H-purin-9-yl)tetrahydrofuran-3,4-diol] | < 1 | 1.1 to 5
9 | CN(Cc1cccc(F)c1)c1ncnc2c1ncn2[C@@H]1O[C@H](COCc2cc(C(F)(F)F)cc(C(F)(F)F)c2)[C@@H](O)[C@H]1O [Compound 14, (2R,3S,4R,5R)-2-(((3,5-bis(trifluoromethyl)benzyl)oxy)methyl)-5-(6-((3-fluorobenzyl)(methyl)amino)-9H-purin-9-yl)tetrahydrofuran-3,4-diol] | < 1 | 5.1 to 15
10 | CN(Cc1cccc(F)c1)c1ncnc2c1ncn2[C@@H]1O[C@H](COCc2ccc(S(F)(F)(F)(F)F)cc2)[C@@H](O)[C@H]1O [Compound 15, (2R,3R,4S,5R)-2-(6-((3-fluorobenzyl)(methyl)amino)-9H-purin-9-yl)-5-(((4-(pentafluorothio)benzyl)oxy)methyl)tetrahydrofuran-3,4-diol] | 1.1 to 5 | 1.1 to 5
11 | CN(Cc1cccc(F)c1)c1ncnc2c1ncn2[C@@H]1O[C@H](COCc2ccc3ccccc3c2)[C@H]2OC(C)(C)O[C@H]21 [Compound 16, 9-((3aR,4R,6R,6aR)-2,2-dimethyl-6-((naphthalen-2-ylmethoxy)methyl)tetrahydrofuro[3,4-d][1,3]dioxol-4-yl)-N-(3-fluorobenzyl)-N-methyl-9H-purin-6-amine] | 1.1 to 5 | 5.1 to 15
12 | CN(Cc1cccc(F)c1)c1ncnc2c1ncn2[C@@H]1O[C@H](COCc2ccc3ccccc3c2Br)[C@H]2OC(C)(C)O[C@H]21 [Compound 17, 9-((3aR,4R,6R,6aR)-6-(((1-bromonaphthalen-2-yl)methoxy)methyl)-2,2-dimethyltetrahydrofuro[3,4-d][1,3]dioxol-4-yl)-N-(3-fluorobenzyl)-N-methyl-9H-purin-6-amine] | 1.1 to 5 | 1.1 to 5
13 | CN(Cc1cccc(F)c1)c1ncnc2c1ncn2[C@@H]1O[C@H](COCc2ccc3ccccc3c2)[C@@H](O)[C@H]1O [Compound 18, (2R,3R,4S,5R)-2-(6-((3-fluorobenzyl)(methyl)amino)-9H-purin-9-yl)-5-((naphthalen-2-ylmethoxy)methyl)tetrahydrofuran-3,4-diol] | 1.1 to 5 | 15.1 to 30
14 | CN(Cc1cccc(F)c1)c1ncnc2c1ncn2[C@@H]1O[C@H](COCc2ccc3ccccc3c2Br)[C@@H](O)[C@H]1O [Compound 19, (2R,3S,4R,5R)-2-(((1-bromonaphthalen-2-yl)methoxy)methyl)-5-(6-((3-fluorobenzyl)(methyl)amino)-9H-purin-9-yl)tetrahydrofuran-3,4-diol] | 1.1 to 5 | 1.1 to 5
15 | CN(Cc1cccc(F)c1)c1ncnc2c1ncn2[C@@H]1O[C@H](CO[Si](C)(C)C(C)(C)C)[C@@H](O)[C@H]1O [Compound 20, (2R,3S,4R,5R)-2-(((tert-butyldimethylsilyl)oxy)methyl)-5-(6-((3-fluorobenzyl)(methyl)amino)-9H-purin-9-yl)tetrahydrofuran-3,4-diol] | 1.1 to 5 | 1.1 to 5
16 | CN(Cc1cccc(F)c1)c1ncnc2c1ncn2[C@@H]1O[C@H](CO[Si](c2ccccc2)(c2ccccc2)c2ccccc2)[C@@H](O)[C@H]1O [Compound 21, (2R,3R,4S,5R)-2-(6-((3-fluorobenzyl)(methyl)amino)-9H-purin-9-yl)-5-(((triphenylsilyl)oxy)methyl)tetrahydrofuran-3,4-diol] | < 1 | 1.1 to 5
17 | O[C@@H]1[C@H](O)[C@@H](COC(c2ccccc2)(c2ccccc2)c2ccccc2)O[C@H]1n1cnc2c(Cl)ncnc21 [Compound 22, (2R,3R,4S,5R)-2-(6-chloro-9H-purin-9-yl)-5-((trityloxy)methyl)tetrahydrofuran-3,4-diol] | < 1 | 5.1 to 15
18 | COc1ccc(C(OC[C@H]2O[C@@H](n3cnc4c(Cl)ncnc43)[C@H](O)[C@@H]2O)(c2ccccc2)c2ccc(OC)cc2)cc1 [Compound 23, (2R,3S,4R,5R)-2-((bis(4-methoxyphenyl) (phenyl)methoxy)methyl)-5-(6-chloro-9H-purin-9-yl)tetrahydrofuran-3,4-diol] | 1.1 to 5 | ≥ 30
19 | CN(Cc1cccc(F)c1)c1ncnc2c1ncn2[C@@H]1O[C@H](COC(c2ccccc2)(c2ccccc2)c2ccccc2)[C@@H](O)[C@H]1O [Compound 24, (2R,3R,4S,5R)-2-(6-((3-fluorobenzyl)(methyl)amino)-9H-purin-9-yl)-5-((trityloxy)methyl)tetrahydrofuran-3,4-diol] | < 1 | 1.1 to 5
20 | COc1ccc(C(OC[C@H]2O[C@@H](n3cnc4c(N(C)Cc5cccc(F)c5)ncnc43)[C@H](O)[C@@H]2O)(c2ccccc2)c2ccc(OC)cc2)cc1 [Compound 25, (2R,3S,4R,5R)-2-((bis(4-methoxyphenyl) (phenyl)methoxy)methyl)-5-(6-((3-fluorobenzyl)(methyl)amino)-9H-purin-9-yl)tetrahydrofuran-3,4-diol] | < 1 | < 1
